Results: article doi:10.1101/2025.03.23.644840v2 (biorxiv, 2025)
Like-named read-outs stand apart in the source and are kept apart here.

Assays:
Assay in all cases: isothermal titration calorimetry
ΔAnc4 = target: ΔAnc4; parameters: species or system synthetic construct; settings: 25 °C; 20 mM HEPES, 150 mM NaCl, 2% glycerol, pH 8; 1:1 model
Anc4 = format: binding, synthetic construct; settings: 25 °C; 20 mM HEPES, 150 mM NaCl, 2% glycerol, pH 8; 1:1 model
Anc3 = format: binding, synthetic construct; settings: 25 °C; 20 mM HEPES, 150 mM NaCl, 2% glycerol, pH 8; 1:1 model
ecLacI = ecLacI (Escherichia coli, UniProt P03023); format: binding
Anc2 = format: binding, synthetic construct; settings: 25 °C; 20 mM HEPES, 150 mM NaCl, 2% glycerol, pH 8; 1:1 model
Anc1 = format: binding, synthetic construct; settings: 25 °C; 20 mM HEPES, 150 mM NaCl, 2% glycerol, pH 8; 1:1 model
ΔAnc1 = target: ΔAnc1; parameters: species or system synthetic construct; settings: 25 °C; 20 mM HEPES, 150 mM NaCl, 2% glycerol, pH 8; 1:1 model

ecLacI, sequence (P03023 whole entry): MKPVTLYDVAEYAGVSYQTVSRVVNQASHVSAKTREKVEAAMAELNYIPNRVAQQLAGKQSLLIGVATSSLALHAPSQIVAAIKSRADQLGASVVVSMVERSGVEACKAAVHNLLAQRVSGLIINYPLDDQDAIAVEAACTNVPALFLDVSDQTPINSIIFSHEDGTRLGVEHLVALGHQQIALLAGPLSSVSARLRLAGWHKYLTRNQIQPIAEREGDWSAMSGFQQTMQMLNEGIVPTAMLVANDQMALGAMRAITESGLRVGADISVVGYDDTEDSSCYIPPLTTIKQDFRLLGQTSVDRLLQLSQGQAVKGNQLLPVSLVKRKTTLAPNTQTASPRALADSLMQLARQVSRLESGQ

Kd (ΔAnc4) [µM]	Kd (Anc4) [µM]	Kd (Anc3) [µM]	Kd (ecLacI) [µM]	Kd (Anc2) [µM]	Kd (Anc1) [µM]	Kd (ecLacI; 25 °C, 20 mM HEPES, 150 mM NaCl, 2% glycerol, pH 8, 1:1 model) [µM]	Kd (ΔAnc1) [µM]	Structure (SMILES)
430	550	2500	306	2200	4000			CO[C@@H]1O[C@H](CO)[C@H](O)[C@H](O)[C@H]1O [BMDG]
	15000				127	37000	420	C[C@H]1OC(O)[C@H](O)[C@@H](O)[C@H]1O (stereo partly drawn) [D-fucose]
